{"source": "paper PMC9308172", "about": "(Journal of medicinal chemistry, 2017)", "key": {"[1]": {"test_system": "A/California/07/2009 (H1N1) M2: N31", "conditions": "cited from earlier work"}, "[2]": {"biological_target": "T1, M2TMWT (Influenza A virus, UniProt P0DOF5)", "T1 sequence (P0DOF5 22-46 limits assumed)": "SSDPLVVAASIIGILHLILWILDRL", "conditions": "cited from earlier work"}, "[3]": {"biological_target": "T1, M2TMWT", "assay_type": "binding"}}, "note": "Where two headings read alike, the source gives them in different places.", "data": [{"smiles": "NC12CC3CC(CC(C3)C1)C2", "note": "[Compound 1, Amantadine, reference compound]", "values": [{"measurement": "% block after 3 min", "setting": "[1]", "value": "14 ± 2 (100 μM; 26) %"}, {"measurement": "TΔS", "setting": "[2]", "value": "1.11 ± 0.521", "unit": "kcal/mol"}, {"measurement": "ΔG", "setting": "[2]", "value": "-7.77 ± 0.141", "unit": "kcal/mol"}, {"measurement": "ΔH", "setting": "[2]", "value": "-6.661 ± 0.5", "unit": "kcal/mol"}]}, {"smiles": "NC1C2CC3CC(C2)CC1C3", "note": "(stereo not drawn) [Compound 2]", "values": [{"measurement": "% block after 3 min", "setting": "[1]", "value": "13 ± 3 (100 μM; 2) %"}, {"measurement": "% block after 30 min", "setting": "[1]", "value": "16 (100 μM; 1) %"}, {"measurement": "TΔS", "setting": "[2]", "value": "0.93 ± 0.44", "unit": "kcal/mol"}, {"measurement": "ΔG", "setting": "[2]", "value": "-7.959 ± 0.129", "unit": "kcal/mol"}, {"measurement": "ΔH", "setting": "[2]", "value": "-7.029 ± 0.421", "unit": "kcal/mol"}]}, {"smiles": "CC1(N)C2CC3CC(C2)CC1C3", "note": "(stereo not drawn) [Compound 3]", "values": [{"measurement": "TΔS", "setting": "[2]", "value": "1.51 ± 0.289", "unit": "kcal/mol"}, {"measurement": "ΔG", "setting": "[2]", "value": "-8.31 ± 0.129", "unit": "kcal/mol"}, {"measurement": "ΔH", "setting": "[2]", "value": "-6.79 ± 0.261", "unit": "kcal/mol"}]}, {"smiles": "CCC1(N)C2CC3CC(C2)CC1C3", "note": "(stereo not drawn) [Compound 4]", "values": [{"measurement": "TΔS", "setting": "[2]", "value": "1.38 ± 0.251", "unit": "kcal/mol"}, {"measurement": "ΔG", "setting": "[2]", "value": "-8.521 ± 0.129", "unit": "kcal/mol"}, {"measurement": "ΔH", "setting": "[2]", "value": "-7.139 ± 0.21", "unit": "kcal/mol"}]}, {"smiles": "CCCC1(N)C2CC3CC(C2)CC1C3", "note": "(stereo not drawn) [Compound 5]", "values": [{"measurement": "% block after 3 min", "setting": "[1]", "value": "0 ± 5 (100 μM; 2) %"}, {"measurement": "% block after 30 min", "setting": "[1]", "value": "9 ± 10 (100 μM, 3) %"}, {"measurement": "TΔS", "setting": "[2]", "value": "0.932 ± 0.347", "unit": "kcal/mol"}, {"measurement": "ΔG", "setting": "[2]", "value": "-8.707 ± 0.165", "unit": "kcal/mol"}, {"measurement": "ΔH", "setting": "[2]", "value": "-7.796 ± 0.308", "unit": "kcal/mol"}]}, {"smiles": "C1CNC2(C1)C1CC3CC(C1)CC2C3", "note": "(stereo not drawn) [Compound 6]", "values": [{"measurement": "TΔS", "setting": "[2]", "value": "3.97 ± 0.614", "unit": "kcal/mol"}, {"measurement": "ΔG", "setting": "[2]", "value": "-9.109 ± 0.44", "unit": "kcal/mol"}, {"measurement": "ΔH", "setting": "[2]", "value": "-5.136 ± 0.421", "unit": "kcal/mol"}]}, {"smiles": "CN1CCCC12C1CC3CC(C1)CC2C3", "note": "(stereo not drawn) [Compound 7]", "values": [{"measurement": "TΔS", "setting": "[2]", "value": "4.46 ± 0.361", "unit": "kcal/mol"}, {"measurement": "ΔG", "setting": "[2]", "value": "-8.279 ± 0.229", "unit": "kcal/mol"}, {"measurement": "ΔH", "setting": "[2]", "value": "-3.819 ± 0.28", "unit": "kcal/mol"}]}, {"smiles": "CC12CC3CC(CC(C3)C13CCCN3)C2", "note": "(stereo not drawn) [Compound 8, 1′-Methylspiro[pyrrolidine-2,2′-adamantane]]", "values": [{"measurement": "TΔS", "setting": "[2]", "value": "3 ± 0.37", "unit": "kcal/mol"}, {"measurement": "ΔG", "setting": "[2]", "value": "-8.081 ± 0.201", "unit": "kcal/mol"}, {"measurement": "ΔH", "setting": "[2]", "value": "-5.079 ± 0.311", "unit": "kcal/mol"}]}, {"smiles": "NC1(C23CC4CC(CC(C4)C2)C3)CCCC1", "note": "[Compound 9]", "values": [{"measurement": "ΔG", "setting": "[3]", "value": "-6.637 ± 0.189", "unit": "kcal/mol"}]}]}
